Tests used:
[1] = test system: patients suffering from acne; assay: Multi-centre, randomized, double-blind clinical study of adapalene + BPO topical gel versus monads and vehicle; assay type: in vivo; details: adapalene 0.1%, BPO 2.5%; for Reduction in lesions (all lesions): 12 weeks, gels once a day, rounded values of the text; for Degree of success (percentage of patients clear or almost clear): week 12, ITT (LOCF), gels once a day for 12 weeks
Experimental: A clinical study for confirmation of efficacy was performed for a topical gel combining adapalene+benzoyl peroxide (BPO). This gel has the following formulation (expressed as % weight/total weight): [table] Protocol: The clinical study was a multi-centre, randomized, double-blind study in parallel groups, to evaluate the tolerance and the efficacy of the above formulation, in comparison with its own individual active substances placed at the same doses in gels of the same formula as that of the fixed combination (individual formulae referred to as “monads”) and in comparison with the gel vehicle (placebo formula): adapalene gel (0.1%), BPO gel (2.5%) and vehicle gel. All the treatments were applied once a day for 12 weeks, to 517 patients suffering from acne. The main efficacy criteria were: the degree of success, defined as the percentage of patients considered as being “clear”, i.e., the patient has no more acne lesions (neither comedones nor inflammatory lesions), reflecting an improvement in the patient's clinical condition, or “almost clear” on the evaluation scale; the reduction of the percentage of inflammatory and non-inflammatory lesions after 12 weeks of treatment.

[2] = test system: TPA-induced ear edema; assay: Anti-inflammatory evaluation in TPA-induced ear edema model; assay type: in vivo, Balb/c mice; details: single topical application, T+6 hours
Experimental: Evaluation of the Anti-Inflammatory in Ear Edema Model on Balb/c Mice
The study was carried out with […] ([…]) female 9 weeks aged Balb/c ByJlc mice.
The Edema was induced by a single application of 20 μl of TPA dissolved in acetone at 0.01%.
The treatment was administrated by single topical application of tested compounds dissolved in TPA at 0.01% (groups 3, 4, 5, 6 and 7) and dissolved in TPA 0.01%+BPO (groups 8, 9 and 10).
The treatments activity was measured by inflammation evaluation with ear thickness at T+6 hours.

Row | SMILES | Reduction in lesions (all lesions) [1] [%] | Degree of success (percentage of patients clear or almost clear) [1] [%] | Anti-inflammatory effect on TPA-induced ear edema (in words) [2]
1 | O=C(OOC(=O)c1ccccc1)c1ccccc1 [BPO, benzoyl peroxide] | 36 | 15 | slight anti-inflammatory effect
2 | COc1ccc(-c2ccc3cc(C(=O)O)ccc3c2)cc1C12CC3CC(CC(C3)C1)C2 [Adapalene, 6-[3-(1-Adamantyl)-4-methoxyphenyl]-2-naphthoic acid] | 35 | 16 | low anti-inflammatory effect

Reference: patent US20120115947A1, “COMBINATION/ASSOCIATION OF ADAPALENE AND BENZOYL PEROXIDE FOR TREATING ACNE LESIONS” (Galderma Research & Development, priority 2006, published 2012)
